Data published in patent US6177438A, “Morphinan derivatives and pharmaceutical use thereof” (priority 1993, dated 2001).
pIC50: −log10 of the molar value. Counter-ions that a name gives are not always drawn. Like-named read-outs stand apart in the source and are kept apart here.

Columns and labels:
[1] = Diuretic action (urine output for 5 hours after physiological saline loading in rats); format: in vivo, male Wistar rats; conditions: for ED (200% urine output) / ED (500% urine output): Rattus norvegicus, sc, 5 hours after saline 20 ml/kg p.o.; for ED (200% urine output): dose giving urine output of 200 (non-dosed group = 100); for ED (500% urine output): dose giving urine output of 500 (non-dosed group = 100); for Diuretic action (in words): s.c., from ED200 values
Method: 7-8 week old male Wistar rats were used in this test after prohibiting from drinking water for 1 hour before the start of testing. After discharging any urine accumulated in the bladder by gently stimulating the lower abdomens of the animals, the drug was administered subcutaneously. After 30 minutes, the animals were then forcibly given 20 ml/kg of physiological saline orally. The animals were placed in metabolic cages immediately after administration of the drug (2 animals/cage) and urine output for 5 hours after loading with physiological saline was measured. Drug efficacy was expressed in the form of those doses resulting in urine outputs of 200 and 500, respectively, when the urine output of a non-dosed group was taken to be 100. Those doses were expressed as the ED200 and ED500 values, respectively.

[2] = system: extracted mouse vas deferens preparation; assay: Opioid activity test using an extracted mouse vas deferens preparation (suppression of electrically induced contractions); design: species or system male ddy mouse; conditions: electrical stimulus 0.1 Hz, 37° C.
Method: (§1) A male ddy mouse was used in this test. The vas deferens extracted from the animal was suspended in a Magnus tube filled with Krebes-Henseleit solution (NaCl 118 mM; KCl 4.7 mM; CaCl2 2.5 mM; KH2 PO4 1.1 mM; NaHCO3 25 mM; Glucose 11 mM) warmed to 37° C. and ventilated with 5% carbon dioxide and 95% oxygen. Electrical stimulus was performed at 0.1 Hz for 5.0 ms by means of ring-shaped platinum electrodes located above and below. Tissue contractions were recorded on a polygraph using an isometric transducer.
(§2) After adequately washing with nutrient solution and the contraction reaction stabilized, the μ agonist, naloxone, the δ agonist, NTI, or the κ agonist, norBNI, was added after which the test compound was again cumulatively added after roughly 20 minutes. The Ke value was calculated using the following calculation formula from the difference in the efficacies of both agonists.

[3] = target: T1, κ receptor (Mus musculus, UniProt P33534); assay: Opioid activity test using an extracted mouse vas deferens preparation, Ke with norBNI; design: species or system male ddy mouse; conditions: for receptor selectivity of agonist (κ): in words; for Ke, norBNI: κ, norBNI added
T1 construct: from tissue; host or cells: mouse (male ddy) vas deferens
T1 sequence (P33534 whole entry): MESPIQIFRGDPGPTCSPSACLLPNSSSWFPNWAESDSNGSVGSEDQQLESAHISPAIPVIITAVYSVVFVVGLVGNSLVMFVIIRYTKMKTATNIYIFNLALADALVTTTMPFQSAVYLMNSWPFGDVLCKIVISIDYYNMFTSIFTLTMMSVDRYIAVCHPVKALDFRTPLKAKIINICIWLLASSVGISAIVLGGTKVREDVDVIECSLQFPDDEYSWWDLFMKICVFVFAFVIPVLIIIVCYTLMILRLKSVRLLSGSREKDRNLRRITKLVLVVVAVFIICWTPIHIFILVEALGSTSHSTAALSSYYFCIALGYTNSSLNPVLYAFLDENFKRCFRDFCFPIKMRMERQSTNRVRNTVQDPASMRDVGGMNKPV
Method: as §1, §2
(§3) Ke=[Conc. of added agonist]/(IC50 ratio-1)
(§4) IC50 ratio=IC50 in the presence of agonist/IC50 in the absence of agonist

[4] = system: acetic acid-induced writhing in ddy mice; assay: animal or person; format: in vivo, 5 week old ddy mice; conditions: for ED50: s.c. 15 minutes before acetic acid; for analgesic activity: s.c., in words
Method: 5 week old ddy mice were used in this test. After intraperitoneal administration of 0.1 ml of 0.6% aqueous acetic acid per 10 g of body weight, the number of writhing reactions that occurred in 10 minutes starting 10 minutes after administration was evaluated for the indicator. The test drug was administered subcutaneously into the backs of the animals 15 minutes before administration of acetic acid.

[5] = target: T2, δ receptor (Mus musculus, UniProt P32300); design: species or system male ddy mouse
T2 construct: The vas deferens extracted from the animal was suspended in a Magnus tube; from tissue; host or cells: mouse (male ddy) vas deferens
T2 sequence (P32300 whole entry): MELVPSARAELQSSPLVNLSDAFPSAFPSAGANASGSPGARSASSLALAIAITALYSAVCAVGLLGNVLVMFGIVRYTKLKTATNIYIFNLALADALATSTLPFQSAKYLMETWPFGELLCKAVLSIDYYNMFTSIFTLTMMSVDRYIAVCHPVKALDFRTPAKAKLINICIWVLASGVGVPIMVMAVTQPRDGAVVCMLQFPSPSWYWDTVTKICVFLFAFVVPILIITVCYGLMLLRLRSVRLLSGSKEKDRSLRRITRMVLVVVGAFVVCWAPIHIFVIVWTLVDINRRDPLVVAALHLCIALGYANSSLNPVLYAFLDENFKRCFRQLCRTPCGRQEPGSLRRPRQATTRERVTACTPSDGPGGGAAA

[6] = target: T3, μ receptor (Mus musculus, UniProt P42866); assay: Opioid activity test using an extracted mouse vas deferens preparation, Ke with naloxone; design: species or system male ddy mouse; conditions: naloxone added
T3 construct: naloxone as mu antagonist (printed 'agonist')
T3 sequence (P42866 whole entry): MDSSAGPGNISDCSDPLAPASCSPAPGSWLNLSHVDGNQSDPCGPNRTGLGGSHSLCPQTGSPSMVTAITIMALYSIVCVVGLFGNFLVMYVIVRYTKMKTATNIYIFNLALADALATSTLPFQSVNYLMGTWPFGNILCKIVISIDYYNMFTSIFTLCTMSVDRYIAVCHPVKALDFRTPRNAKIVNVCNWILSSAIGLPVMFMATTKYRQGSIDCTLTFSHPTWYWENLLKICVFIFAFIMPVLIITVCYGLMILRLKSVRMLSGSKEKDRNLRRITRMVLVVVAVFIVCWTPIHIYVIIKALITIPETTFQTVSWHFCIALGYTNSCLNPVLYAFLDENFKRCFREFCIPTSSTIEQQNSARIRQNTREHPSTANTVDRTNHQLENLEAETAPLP
Method: as §1, §2, §3, §4

[7] = Mus musculus, sc, read-out: ED50
[8] = mouse vas deferens, δ, NTI added

SMILES	ED (200% urine output) [1] [µg/kg]	ED (500% urine output) [1] [µg/kg]	pIC50 [2]	receptor selectivity of agonist (κ) [3]	Ke, norBNI [3] [nM]	ED50 [4, 7] [µg/kg]	Ke, NTI [5, 8] [nM]	Ke, Naloxone [6] [nM]	Diuretic action (in words) [1]	analgesic activity [4]	ED50 [4] [µg/kg]	Ke, NTI [5] [nM]	receptor selectivity of agonist (δ) ([5]; mouse vas deferens, in words)
CC(=O)Oc1ccc2c3c1O[C@H]1[C@H](N(C)C(=O)/C=C/c4cccc(C(F)(F)F)c4)CC[C@@]4(O)[C@@H](C2)N(CC2CC2)CC[C@]314 [Compound 141, 17-cyclopropylmethyl-3-acetoxy-14β-hydroxy-4,5α-epoxy-6β-(N-methyl-3-trifluoromethylcinnamamido)morphinan.cndot.tartrate]	31.9	3450	9.80	selective agonists for κ receptors	1.39	10	184	142	–	–	–	–	–
C=CCN1CC[C@]23c4c5ccc(O)c4O[C@H]2[C@@H](N(C)C(=O)Cc2ccc(Cl)c(Cl)c2)CC[C@@]3(O)[C@H]1C5 [Compound 122, 17-allyl-3,14β-dihydroxy-4,5α-epoxy-6α-(N-methyl-3,4-dichlorophenylacetamido)morphinan.cndot.hydrochloride]	–	–	8.52	selective agonists for κ receptors	0.358	340	42.7	59.5	–	–	–	–	–
CCCCCC(=O)N(C)[C@H]1CC[C@@]2(O)[C@H]3Cc4ccc(O)c5c4[C@@]2(CCN3CC2CC2)[C@H]1O5 [Compound 39, 17-cyclopropylmethyl-3,14β-dihydroxy-4,5α-epoxy-6α-(N-methylhexanamido)morphinan.cndot.tartrate]	4.1	228	9.25	selective agonists for κ receptors	1.01	8.8	99.3	89.9	–	–	–	–	–
CN(C(=O)/C=C/c1ccc(C(F)(F)F)cc1)[C@@H]1CC[C@@]2(O)[C@H]3Cc4ccc(O)c5c4[C@@]2(CCN3CC2CC2)[C@H]1O5 [Compound 73, 17-cyclopropylmethyl-3,14β-dihydroxy-4,5α-epoxy-6β-(N-methyl-4-trifluoromethylcinnamamido)morphinan.cndot.tartrate]	–	–	10.14	selective agonists for κ receptors	0.272	23	78	524	–	–	–	–	–
Cc1cccc(C#CC(=O)N(C)[C@@H]2CC[C@@]3(O)[C@H]4Cc5ccc(O)c6c5[C@@]3(CCN4CC3CC3)[C@H]2O6)c1.Cl [Compound 172, 17-cyclopropylmethyl-3,14β-dihydroxy-4,5α-epoxy-6β-[N-methyl-3-(3-methylphenyl)propiolamido]morphinan hydrochloride]	3.23	3030	–	selective agonists for κ receptors	0.163	7.9	17.57	16.16	–	–	–	–	–
CN(C(=O)OCc1ccccc1)[C@H]1CC[C@@]2(O)[C@H]3Cc4ccc(O)c5c4[C@@]2(CCN3CC2CC2)[C@H]1O5 [Compound 42, 17-cyclopropylmethyl-3,14β-dihydroxy-4,5α-epoxy-6α-(N-methylbenzyloxycarbamido)morphinan.cndot.tartrate]	0.85	6.1	9.60	selective agonists for κ receptors	0.905	1.36	63.5	186	extremely strong diuretic action	particularly strong analgesic activity	–	–	–
CC(=O)Oc1ccc2c3c1O[C@H]1[C@H](N(C)C(=O)/C=C/c4ccccc4)CC[C@@]4(O)[C@@H](C2)N(CC2CC2)CC[C@]314 [Compound 140, 17-Cyclopropylmethyl-3-acetoxy-14β-hydroxy-4,5α-epoxy-6β-(N-methylcinnamamido)morphinan.cndot.tartrate]	–	–	9.38	selective agonists for κ receptors	1.06	–	261	320	–	–	3.4	–	–
COc1cccc(/C=C/C(=O)N(C)[C@@H]2CC[C@@]3(O)[C@H]4Cc5ccc(O)c6c5[C@@]3(CCN4CC3CC3)[C@H]2O6)c1 [Compound 63, 17-cyclopropylmethyl-3,14β-dihydroxy-4,5α-epoxy-6β-(N-methyl-3-methoxycinnamamido)morphinan.cndot.tartrate]	3.8	309	9.13	selective agonists for κ receptors	1.60	1.1	96.9	60.9	–	particularly strong analgesic activity	–	–	–
CN(C(=O)/C=C/c1cccc(Cl)c1)[C@@H]1CC[C@@]2(O)[C@H]3Cc4ccc(O)c5c4[C@@]2(CCN3CC2CC2)[C@H]1O5 [Compound 154, 17-cyclopropylmethyl-3,14β-dihydroxy-4,5α-epoxy-6β-(N-methyl-3-chlorocinnamamido)morphinan hydrochloride]	2.14	270	–	selective agonists for κ receptors	0.133	1	–	43.1	–	particularly strong analgesic activity	–	31.5	–
CN(C(=O)/C=C/c1ccc(Cl)cc1)[C@@H]1CC[C@@]2(O)[C@H]3Cc4ccc(O)c5c4[C@@]2(CCN3CC2CC2)[C@H]1O5 [Compound 152, 17-cyclopropylmethyl-3,14β-dihydroxy-4,5α-epoxy-6β-(N-methyl-4-chlorocinnamamido)morphinan hydrochloride]	0.71	9.53	–	selective agonists for κ receptors	0.039	–	–	17.5	extremely strong diuretic action	–	3.8	35.1	–
CC(C)CN(C(=O)/C=C/c1cccc(C(F)(F)F)c1)[C@@H]1CC[C@@]2(O)[C@H]3Cc4ccc(O)c5c4[C@@]2(CCN3CC2CC2)[C@H]1O5 [Compound 166, 17-cyclopropylmethyl-3,14β-dihydroxy-4,5α-epoxy-6β-(N-isobutyl-3-trifluoromethylcinnamamido)morphinan 0.5 tartrate]	–	–	10.55	–	4.78	–	20.5	36.9	–	–	–	–	–
CN(C(=O)/C=C/c1cccc(Br)c1)[C@@H]1CC[C@@]2(O)[C@H]3Cc4ccc(O)c5c4[C@@]2(CCN3CC2CC2)[C@H]1O5 [Compound 151, 17-cyclopropylmethyl-3,14β-dihydroxy-4,5α-epoxy-6β-(N-methyl-3-bromocinnamamido)morphinan hydrobromide]	4.45	1560	–	selective agonists for κ receptors	0.028	4.1	–	0.94	–	–	–	1.65	–
CN(C(=O)C#Cc1ccc(C(F)(F)F)cc1)[C@H]1CC[C@@]2(O)[C@H]3Cc4ccc(O)c5c4[C@@]2(CCN3CC2CC2)[C@H]1O5 [Compound 126, 17-Cyclopropylmethyl-3,14β-dihydroxy-4,5α-epoxy-6α-[N-methyl-3-(4-trifluoromethylphenyl)propiolamido]morphinan.cndot.0.5 tartrate]	–	–	9.01	–	1.20	–	0.0065	40.2	–	–	–	–	selective agonists for δ receptors
